Columns and labels:
[1] = test system: human prostate carcinoma PC3 cells; experiment: In vitro cytotoxicity, BrdU cell proliferation ELISA; type: cell-based; settings: 72 h exposure, 0.05-10 μM
Experimental: Human prostate carcinoma PC3 cells (established from bone marrow metastasis and unresponsive to androgen treatment) were cultured in IMDM (Iscove's Modified Dulbecco's medium) supplemented with 10% heat-inactivated fetal bovine serum (FBS), penicillin (2 mg mL^−1), streptomycin (2 mg mL^−1), L-glutamine (0.1% w/v) at 37° C. in 5% CO2 and moisture-enriched atmosphere.
Before use, [Au^IIIX2(pdtc)] complexes (AUD6, AUD7, AUD8, AUD9) and cisplatin were dissolved in methyl sulfoxide (DMSO) just before the experiments. Calculated amounts of drug solutions were then added to the proper medium to a final concentration of 0.5% (v/v) DMSO which had no discernible effect on cell death.
For the cytotoxicity assay, cells (2.5×10^3 cells mL^−1) were seeded in 96-well flat-bottomed microplates in IMDM supplemented with 10% heat-inactivated FBS and incubated at 37° C. in a 5% CO2 atmosphere. The medium was then removed and replaced with a fresh one containing the compounds to be studied (previously dissolved in DMSO) at increasing concentrations (0.05-10 μM), thus exposing cells to the investigated compounds for 72 h. Triplicate cultures were established for each treatment. Cell viability was determined by a cell proliferation ELISA 5-bromo-2′-deoxyuridine colorimetric kit, according to the manufacturer's protocol. […] For comparison purposes, the cytotoxicity of cisplatin was evaluated under the same experimental conditions.

[2] = test system: cisplatin-sensitive (2008) and -resistant (C13*) human ovarian carcinoma cells; settings: cited from earlier work
[3] = molecular target: T1, MDA-MB-231 whole cell extract (Homo sapiens, UniProt P28074); experiment: Inhibition of proteasomal chymotrypsin-like activity, whole cell extract; type: biochemical; settings: for potency relative to previously investigated Au(III)-dithiocarbamato analogues: MDA-MB-231 whole cell extract; for inhibition of proteasomal chymotrypsin-like activity: MDA-MB-231 whole cell extract (10 μg), 0.1-25 μM, 2 h, FIG. 3B
T1 construct: MDA-MB-231 whole cell extract (10 μg); endogenous in cells; host or cells: MDA-MB-231 whole cell extract
T1 sequence (P28074 60-263): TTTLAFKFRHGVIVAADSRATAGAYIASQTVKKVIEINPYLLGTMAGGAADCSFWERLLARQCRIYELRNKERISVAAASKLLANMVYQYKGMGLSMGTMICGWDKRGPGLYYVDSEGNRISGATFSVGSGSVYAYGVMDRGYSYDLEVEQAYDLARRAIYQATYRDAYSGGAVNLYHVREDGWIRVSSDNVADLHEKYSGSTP
Experimental: (§1) To investigate whether these compounds could also have the proteasome as a biological target, purified rabbit 20S proteasome (35 ng) or MDA-MB-231 whole cell extract (10 μg) were incubated with 20 μM of the substrate (for proteasomal chymotryptic (CT) activity) in 100 μL assay buffer (20 mmol L^−1 Tris-HCl (pH 7.5) in the presence of the compounds to be studied (previously dissolved in DMSO) at increasing concentrations (0.1-25 μM) or equivalent volume of neat DMSO as control. After 2 h incubation at 37° C., inhibition of each proteasomal chymotryptic activity was measured as previously described [V. Milacic et al. 2006, ref. cit.].

[4] = test system: human breast cancer (MDA-MB-231) xenografts; experiment: Human breast tumor xenograft experiments; type: in vivo; settings: 1.0 mg kg−1 s.c. daily, after 13 days, female athymic nude mice
Experimental: Estrogen receptor α-negative human breast cancer MDA-MB-231 cells were grown in RPMI 1640 medium supplemented with 10% fetal bovine serum, penicillin (100 units mL^−1), and streptomycin (100 μg mL^−1) at 37° C. in 5% CO2 and moisture-enriched atmosphere.
Five week-old female athymic nude mice were purchased from Taconic Research Animal Services (Hudson) and housed according to protocols approved by the Institutional Laboratory Animal Care and Use Committee of Wayne State University. MDA-MB-231 cells (5.0×10^6 cells mL^−1 suspended in 0.1 mL of serum-free RPMI 1640 medium) were inoculated subcutaneously (s.c.) in right flank of each mouse (four mice per group). When tumors reached the size of ca. 120 mm^3, mice were randomly grouped and treated daily with s.c. injection of either 1.0 mg kg^−1 of AUD6 or AUD8, or vehicle [10% DMSO, 20% Cremophore/ethanol (3:1) and 70% PBS]. Tumor size was measured every other day using calipers and their volumes were calculated according to the formula width^2×length/2. Mice have being treated for 13 days. Initial tumor growth inhibition was analyzed.

[5] = test system: proteasome target proteins, such as Bax and p27; experiment: Accumulation of proteasome target proteins; type: cell-based; settings: preliminary
[6] = test system: purified rabbit 20S proteasome; experiment: Inhibition of proteasomal chymotrypsin-like activity, purified proteasome; type: biochemical; settings: for potency relative to previously investigated Au(III)-dithiocarbamato analogues: purified rabbit 20S proteasome; for inhibition of proteasomal chymotrypsin-like activity: purified rabbit 20S proteasome (35 ng), 0.1-25 μM, 2 h, FIG. 3A
Experimental: as §1

[7] = test system: estrogen receptor α-negative human breast cancer MDA-MB-231 cells; experiment: Growth inhibition, MTT assay; type: cell-based; settings: 1-50 μM, 22 h, FIG. 2
Experimental: The growth-inhibitory effect of AUD6 and AUD8 on estrogen receptor α-negative human breast cancer MDA-MB-231 cells has been also evaluated. Cells were grown in RPMI 1640 medium supplemented with 10% heat-inactivated fetal bovine serum, penicillin (100 units mL^−1), streptomycin (100 μg mL^−1), L-glutamine (0.1% w/v) at 37° C. in 5% CO2 and moisture-enriched atmosphere. For the cytotoxicity assay, cells were seeded in 96-well microplates in RPMI 1640 medium and grown to 70% to 80% confluency followed by addition of the compounds to be studied (previously dissolved in DMSO) at increasing concentrations (1-50 μM) and incubated at 37° C. in a 5% CO2 atmosphere, thus exposing cells to the investigated compounds for 22 h. Triplicate cultures were established for each treatment. Cell respiration, as an indicator of cell viability, was determined by the mitochondrial-dependent reduction of MTT (3-(4,5-dimethylthiazol-2-yl)-2,5-diphenyltetrazolium bromide) to formazan as previously described [V. Milacic, D. Chen, L. Ronconi, K. R. Landis-Piwowar, D. Fregona, Q. P. Dou, Cancer Res. 2006, 66, 10478-10486]. Cell viability was calculated by dividing the average absorbance of the cells treated with the test compounds by that of the control, the standard deviation being estimated from the average of three trials.

MDA-MB-231 tumor = settings: MDA-MB-231 tumor-bearing nude mice; cited from earlier work

[Au^IIICl2((t-Bu)O-Gly-Sar-dtc)] [AUD7]
IC50 [1]: 1000 ± 100 nM

N.N.[Cl][Pt][Cl] [cisplatin, cis-dichlorodiamminoplatinum(II), reference compound]
IC50 [1]: 2600 ± 200 nM

CCOC(=O)CN(C)C(=S)[S][Pt][Cl].c1ccncc1 [[Pt^IICl(ESDT)(py)]]
inhibition of tumor cell growth compared with cisplatin ([2]; 2008 and C13* cells): greater inhibition of tumor cell growth than cisplatin | cross-resistance in C13* cells ([2]; cisplatin-resistant C13* cells): complete lack of cross-resistance

[Au^IIIBr2((t-Bu)O-Gly-Sar-dtc)] [AUD6]
potency relative to previously investigated Au(III)-dithiocarbamato analogues [3]: two-fold more potent | inhibition of proteasomal chymotrypsin-like activity [3]: concentration-dependent | tumor growth inhibition [4]: ca. 33% | accumulation of proteasome target proteins (Bax, p27) [5]: induce accumulation of proteasome target proteins | IC50 [1]: 850 ± 70 nM | potency relative to previously investigated Au(III)-dithiocarbamato analogues [6]: two-fold more potent | inhibition of proteasomal chymotrypsin-like activity [6]: concentration-dependent

[Au^IIICl2((t-Bu)O-Aib-Sar-dtc)] [AUD9]
IC50 [1]: 750 ± 60 nM

[Au^IIIBr2((t-Bu)O-Aib-Sar-dtc)] [AUD8]
growth-inhibitory effect on MDA-MB-231 cells [7]: slightly higher activity | potency relative to previously investigated Au(III)-dithiocarbamato analogues [3]: two-fold more potent | inhibition of proteasomal chymotrypsin-like activity [3]: concentration-dependent | tumor growth inhibition [4]: > 90% | accumulation of proteasome target proteins (Bax, p27) [5]: induce accumulation of proteasome target proteins | IC50 [1]: 550 ± 50 nM | potency relative to previously investigated Au(III)-dithiocarbamato analogues [6]: two-fold more potent | inhibition of proteasomal chymotrypsin-like activity [6]: concentration-dependent

CN(C)C1=[S+][Au-]([Br])([Br])[S]1 [[Au^IIIBr2(DMDT)]]
inhibition of tumor growth (MDA-MB-231 tumor): significant inhibition of tumor growth

Reference: patent US8481496B2, “Gold (III) complexes with oligopeptides functionalized with sulfur donors and use thereof as antitumor agents” (Universita' Degli Studi di Padova, priority 2009, dated 2013)
